Measurements taken from ChEMBL document CHEMBL3132769, “Fragment growing to retain or alter the selectivity of anchored kinase hinge-binding fragments” (Medchemcomm, 2014).

What was measured:
[1] = biological target: Proto-oncogene tyrosine-protein kinase Src (Homo sapiens) (UniProt P12931); test: Inhibition of human full length SRC expressed in baculovirus assessed as substrate phosphorylation using fluorescence-labelled peptides as substrate at 95 uM after 90 mins by microfluidic peptide phosphorylation assay
Chain of Proto-oncogene tyrosine-protein kinase Src (Homo sapiens) (P12931 2-536 limits assumed): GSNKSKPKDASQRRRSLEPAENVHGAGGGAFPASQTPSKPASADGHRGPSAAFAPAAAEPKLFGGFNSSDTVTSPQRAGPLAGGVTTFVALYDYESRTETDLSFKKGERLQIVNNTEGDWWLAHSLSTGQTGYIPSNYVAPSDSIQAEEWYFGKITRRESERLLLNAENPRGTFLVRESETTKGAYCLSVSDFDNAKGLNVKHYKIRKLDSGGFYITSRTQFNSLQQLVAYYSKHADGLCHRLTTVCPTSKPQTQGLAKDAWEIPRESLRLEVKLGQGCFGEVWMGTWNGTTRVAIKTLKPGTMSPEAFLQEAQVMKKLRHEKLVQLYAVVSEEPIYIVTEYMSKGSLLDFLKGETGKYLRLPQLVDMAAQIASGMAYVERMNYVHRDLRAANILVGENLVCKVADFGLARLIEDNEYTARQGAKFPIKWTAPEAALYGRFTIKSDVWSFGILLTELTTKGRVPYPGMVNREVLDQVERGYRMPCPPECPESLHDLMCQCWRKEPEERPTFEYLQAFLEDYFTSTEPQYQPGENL

[2] = biological target: T1, Protein kinase C epsilon type (Homo sapiens) (UniProt Q02156); test: Inhibition of human truncated PKC epsilon expressed in baculovirus assessed as substrate phosphorylation using fluorescence-labelled peptides as substrate at 0.2 uM after 90 mins by microfluidic peptide phosphorylation assay
T1 sequence (whole entry): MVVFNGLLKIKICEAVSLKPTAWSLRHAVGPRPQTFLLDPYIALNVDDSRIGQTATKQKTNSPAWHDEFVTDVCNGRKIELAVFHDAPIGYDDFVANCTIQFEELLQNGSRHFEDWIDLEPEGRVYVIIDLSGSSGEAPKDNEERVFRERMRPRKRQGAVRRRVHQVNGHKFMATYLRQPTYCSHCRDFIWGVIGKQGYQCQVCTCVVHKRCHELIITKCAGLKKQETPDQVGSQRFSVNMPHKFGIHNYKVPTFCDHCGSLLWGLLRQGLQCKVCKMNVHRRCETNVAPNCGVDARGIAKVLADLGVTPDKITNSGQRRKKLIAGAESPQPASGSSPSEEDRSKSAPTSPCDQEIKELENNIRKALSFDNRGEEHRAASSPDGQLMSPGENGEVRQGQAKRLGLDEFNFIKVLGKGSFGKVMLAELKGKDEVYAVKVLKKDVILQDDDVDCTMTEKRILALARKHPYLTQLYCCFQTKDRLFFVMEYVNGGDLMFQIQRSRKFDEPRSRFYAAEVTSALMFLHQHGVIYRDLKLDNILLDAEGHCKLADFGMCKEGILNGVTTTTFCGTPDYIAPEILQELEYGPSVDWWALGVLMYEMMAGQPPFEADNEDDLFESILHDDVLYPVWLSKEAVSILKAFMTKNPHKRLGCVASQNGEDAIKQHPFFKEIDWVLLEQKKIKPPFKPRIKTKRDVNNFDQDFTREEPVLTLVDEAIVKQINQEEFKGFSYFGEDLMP

[3] = biological target: T2, Testis-specific serine/threonine-protein kinase 2 (Homo sapiens) (UniProt Q96PF2); test: Inhibition of human full length TSSK2 expressed in baculovirus assessed as substrate phosphorylation using fluorescence-labelled peptides as substrate at 8 uM after 90 mins by microfluidic peptide phosphorylation assay
T2 sequence (whole entry): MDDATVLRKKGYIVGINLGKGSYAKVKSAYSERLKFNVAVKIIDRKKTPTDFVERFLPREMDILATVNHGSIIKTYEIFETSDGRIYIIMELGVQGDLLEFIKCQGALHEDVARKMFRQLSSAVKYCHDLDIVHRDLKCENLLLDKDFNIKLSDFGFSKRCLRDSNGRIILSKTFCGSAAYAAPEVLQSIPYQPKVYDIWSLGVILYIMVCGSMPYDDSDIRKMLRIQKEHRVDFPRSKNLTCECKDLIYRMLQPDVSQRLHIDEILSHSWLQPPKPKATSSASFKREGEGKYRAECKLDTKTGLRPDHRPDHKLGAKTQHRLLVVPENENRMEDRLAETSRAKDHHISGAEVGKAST

[4] = biological target: Tyrosine-protein kinase Fer (Homo sapiens) (UniProt P16591); test: Inhibition of human FER catalytic domain expressed in baculovirus assessed as substrate phosphorylation using fluorescence-labelled peptides as substrate at 8 uM after 90 mins by microfluidic peptide phosphorylation assay
Chain of Tyrosine-protein kinase Fer (Homo sapiens) (P16591 whole entry, looked up, the tested form may be a part): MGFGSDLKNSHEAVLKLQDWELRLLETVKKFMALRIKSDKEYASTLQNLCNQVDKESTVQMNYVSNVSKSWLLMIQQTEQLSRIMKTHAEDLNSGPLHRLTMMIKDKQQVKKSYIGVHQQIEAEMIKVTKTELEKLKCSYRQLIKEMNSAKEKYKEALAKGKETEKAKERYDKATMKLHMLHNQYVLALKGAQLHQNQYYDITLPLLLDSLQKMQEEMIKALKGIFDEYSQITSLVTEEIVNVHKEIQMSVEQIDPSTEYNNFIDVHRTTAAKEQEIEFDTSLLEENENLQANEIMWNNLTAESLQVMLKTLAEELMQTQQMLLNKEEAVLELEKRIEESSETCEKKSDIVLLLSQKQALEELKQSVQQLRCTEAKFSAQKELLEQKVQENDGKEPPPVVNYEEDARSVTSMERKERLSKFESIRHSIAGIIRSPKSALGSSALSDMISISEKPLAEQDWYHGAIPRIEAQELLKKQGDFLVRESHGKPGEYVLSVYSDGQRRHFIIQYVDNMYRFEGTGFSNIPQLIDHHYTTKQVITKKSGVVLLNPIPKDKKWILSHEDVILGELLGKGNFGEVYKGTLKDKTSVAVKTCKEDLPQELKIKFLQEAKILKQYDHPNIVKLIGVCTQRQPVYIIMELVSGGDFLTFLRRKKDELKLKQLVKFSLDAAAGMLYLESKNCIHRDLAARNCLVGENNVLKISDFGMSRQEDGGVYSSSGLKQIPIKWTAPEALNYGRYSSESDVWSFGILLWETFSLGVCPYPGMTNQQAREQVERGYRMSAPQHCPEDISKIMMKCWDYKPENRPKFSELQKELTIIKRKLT

[5] = biological target: RAC-alpha serine/threonine-protein kinase (Homo sapiens) (UniProt P31749); test: Inhibition of human AKT1 catalytic domain expressed in baculovirus assessed as substrate phosphorylation using fluorescence-labelled peptides as substrate at 2 uM after 90 mins by microfluidic peptide phosphorylation assay
Chain of RAC-alpha serine/threonine-protein kinase (Homo sapiens) (P31749 whole entry, the tested form may be a part): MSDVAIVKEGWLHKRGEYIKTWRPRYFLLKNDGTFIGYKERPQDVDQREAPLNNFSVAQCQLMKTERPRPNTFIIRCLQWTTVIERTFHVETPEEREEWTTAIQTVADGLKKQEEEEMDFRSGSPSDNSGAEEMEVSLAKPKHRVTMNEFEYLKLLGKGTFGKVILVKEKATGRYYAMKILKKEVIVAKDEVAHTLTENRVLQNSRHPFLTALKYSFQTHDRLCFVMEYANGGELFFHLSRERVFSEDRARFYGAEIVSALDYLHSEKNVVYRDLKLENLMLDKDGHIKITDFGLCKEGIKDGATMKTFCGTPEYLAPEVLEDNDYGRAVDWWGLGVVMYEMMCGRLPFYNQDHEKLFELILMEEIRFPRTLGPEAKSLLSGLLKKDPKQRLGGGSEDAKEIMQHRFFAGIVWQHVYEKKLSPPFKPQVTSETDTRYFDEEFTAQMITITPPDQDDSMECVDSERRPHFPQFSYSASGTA

[6] = biological target: Calcium/calmodulin-dependent protein kinase type II subunit delta (Homo sapiens) (UniProt Q13557); test: Inhibition of human full length CAMK2D expressed in baculovirus assessed as substrate phosphorylation using fluorescence-labelled peptides as substrate at 2 uM after 90 mins by microfluidic peptide phosphorylation assay
Chain of Calcium/calmodulin-dependent protein kinase type II subunit delta (Homo sapiens) (Q13557 whole entry, the tested form may be a part): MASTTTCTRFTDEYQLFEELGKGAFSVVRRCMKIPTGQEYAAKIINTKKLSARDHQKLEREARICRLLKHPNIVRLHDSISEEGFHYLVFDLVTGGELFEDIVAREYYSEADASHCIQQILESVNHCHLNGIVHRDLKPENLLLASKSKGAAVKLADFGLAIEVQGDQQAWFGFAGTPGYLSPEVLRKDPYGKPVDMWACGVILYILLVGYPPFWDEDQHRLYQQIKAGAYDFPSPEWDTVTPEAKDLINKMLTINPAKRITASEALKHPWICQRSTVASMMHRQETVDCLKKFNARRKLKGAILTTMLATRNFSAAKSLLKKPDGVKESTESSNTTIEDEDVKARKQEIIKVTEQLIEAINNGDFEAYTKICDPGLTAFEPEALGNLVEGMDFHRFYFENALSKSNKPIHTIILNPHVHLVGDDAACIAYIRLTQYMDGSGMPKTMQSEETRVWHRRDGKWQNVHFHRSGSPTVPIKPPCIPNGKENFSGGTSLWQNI

[7] = biological target: Protein kinase C alpha type (Homo sapiens) (UniProt P17252); test: Inhibition of human truncated PKC alpha expressed in baculovirus assessed as substrate phosphorylation using fluorescence-labelled peptides as substrate at 2 uM after 90 mins by microfluidic peptide phosphorylation assay
[8] = biological target: MAP/microtubule affinity-regulating kinase 3 (Homo sapiens) (UniProt P27448); test: Inhibition of human full length c-TAK1 expressed in Escherichia coli cell assessed as substrate phosphorylation using fluorescence-labelled peptides as substrate at 2 uM after 90 mins by microfluidic peptide phosphorylation assay
Chain of MAP/microtubule affinity-regulating kinase 3 (Homo sapiens) (P27448 whole entry, looked up, the tested form may be a part): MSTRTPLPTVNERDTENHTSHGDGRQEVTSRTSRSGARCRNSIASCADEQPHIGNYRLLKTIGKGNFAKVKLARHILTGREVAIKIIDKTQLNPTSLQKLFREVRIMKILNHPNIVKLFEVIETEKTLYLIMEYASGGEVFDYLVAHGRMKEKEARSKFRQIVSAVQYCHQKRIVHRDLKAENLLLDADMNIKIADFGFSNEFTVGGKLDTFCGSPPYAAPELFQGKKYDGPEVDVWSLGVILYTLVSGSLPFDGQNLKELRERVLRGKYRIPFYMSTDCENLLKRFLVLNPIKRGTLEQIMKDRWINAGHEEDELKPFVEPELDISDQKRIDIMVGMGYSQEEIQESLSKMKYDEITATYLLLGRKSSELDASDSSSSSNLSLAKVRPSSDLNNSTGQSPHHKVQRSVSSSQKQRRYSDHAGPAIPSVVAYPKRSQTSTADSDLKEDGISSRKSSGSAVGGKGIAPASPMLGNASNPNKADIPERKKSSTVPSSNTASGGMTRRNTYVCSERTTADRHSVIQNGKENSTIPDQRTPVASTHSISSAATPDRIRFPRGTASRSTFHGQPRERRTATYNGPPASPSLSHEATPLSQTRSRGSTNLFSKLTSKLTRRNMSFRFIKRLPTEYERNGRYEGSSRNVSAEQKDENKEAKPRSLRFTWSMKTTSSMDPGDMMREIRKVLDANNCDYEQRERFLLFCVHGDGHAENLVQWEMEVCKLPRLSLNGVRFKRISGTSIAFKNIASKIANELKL

[9] = biological target: Calcium/calmodulin-dependent protein kinase type II subunit gamma (Homo sapiens) (UniProt Q13555); test: Inhibition of human CAMK2 gamma catalytic domain expressed in baculovirus assessed as substrate phosphorylation using fluorescence-labelled peptides as substrate at 2 uM after 90 mins by microfluidic peptide phosphorylation assay
[10] = biological target: MAP kinase-activated protein kinase 2 (Homo sapiens) (UniProt P49137); test: Inhibition of human full length MAPKAPK2 expressed in baculovirus assessed as substrate phosphorylation using fluorescence-labelled peptides as substrate at 0.06 uM after 90 mins by microfluidic peptide phosphorylation assay
Chain of MAP kinase-activated protein kinase 2 (Homo sapiens) (P49137 whole entry, looked up): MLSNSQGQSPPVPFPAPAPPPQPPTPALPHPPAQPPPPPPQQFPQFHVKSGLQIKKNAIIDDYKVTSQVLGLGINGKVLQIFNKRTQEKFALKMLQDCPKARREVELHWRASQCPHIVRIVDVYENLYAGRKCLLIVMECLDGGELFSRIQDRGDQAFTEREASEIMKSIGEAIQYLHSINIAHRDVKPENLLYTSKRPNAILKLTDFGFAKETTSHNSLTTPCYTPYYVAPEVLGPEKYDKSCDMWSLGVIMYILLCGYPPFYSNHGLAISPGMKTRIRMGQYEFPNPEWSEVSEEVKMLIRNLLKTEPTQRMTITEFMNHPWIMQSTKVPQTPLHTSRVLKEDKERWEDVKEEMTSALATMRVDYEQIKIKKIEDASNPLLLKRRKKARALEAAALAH

[11] = biological target: Fibroblast growth factor receptor 2 (Homo sapiens) (UniProt P21802); conditions: 0.1 uM
Chain of Fibroblast growth factor receptor 2 (Homo sapiens) (P21802 22-821 limits assumed): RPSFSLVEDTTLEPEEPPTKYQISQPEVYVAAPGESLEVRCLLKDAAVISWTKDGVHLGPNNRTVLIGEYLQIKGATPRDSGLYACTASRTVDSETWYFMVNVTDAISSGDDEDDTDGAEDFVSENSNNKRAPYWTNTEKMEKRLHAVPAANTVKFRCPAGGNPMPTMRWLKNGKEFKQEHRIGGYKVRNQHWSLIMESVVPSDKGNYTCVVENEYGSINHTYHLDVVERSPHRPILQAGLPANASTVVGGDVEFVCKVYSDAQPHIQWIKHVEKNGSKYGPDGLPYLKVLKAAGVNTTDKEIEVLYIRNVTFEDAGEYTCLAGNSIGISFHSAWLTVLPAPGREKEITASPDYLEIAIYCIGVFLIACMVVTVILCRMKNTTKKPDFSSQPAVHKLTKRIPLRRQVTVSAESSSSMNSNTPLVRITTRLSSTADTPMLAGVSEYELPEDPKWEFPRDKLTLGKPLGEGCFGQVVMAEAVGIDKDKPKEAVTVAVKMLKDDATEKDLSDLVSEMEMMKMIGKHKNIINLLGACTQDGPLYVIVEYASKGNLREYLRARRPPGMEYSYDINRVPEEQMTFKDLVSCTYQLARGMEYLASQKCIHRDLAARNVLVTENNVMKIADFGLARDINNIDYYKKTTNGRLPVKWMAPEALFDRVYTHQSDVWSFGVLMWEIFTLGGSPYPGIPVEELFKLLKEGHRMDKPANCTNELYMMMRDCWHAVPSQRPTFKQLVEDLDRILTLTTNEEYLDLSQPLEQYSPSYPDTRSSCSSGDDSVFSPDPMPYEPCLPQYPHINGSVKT
Description: Inhibition of human FGFR2 catalytic domain expressed in baculovirus assessed as substrate phosphorylation using fluorescence-labelled peptides as substrate at 0.1 uM after 90 mins by microfluidic peptide phosphorylation assay

[12] = biological target: Calcium/calmodulin-dependent protein kinase type II subunit beta (Homo sapiens) (UniProt Q13554); test: Inhibition of human CAMK2 beta catalytic domain expressed in baculovirus assessed as substrate phosphorylation using fluorescence-labelled peptides as substrate at 420 uM after 90 mins by microfluidic peptide phosphorylation assay
[13] = biological target: T3, MAP kinase-activated protein kinase 5 (Homo sapiens) (UniProt Q8IW41); test: Inhibition of human full length PRAK expressed in baculovirus assessed as substrate phosphorylation using fluorescence-labelled peptides as substrate at 70 uM after 90 mins by microfluidic peptide phosphorylation assay
T3 sequence (whole entry): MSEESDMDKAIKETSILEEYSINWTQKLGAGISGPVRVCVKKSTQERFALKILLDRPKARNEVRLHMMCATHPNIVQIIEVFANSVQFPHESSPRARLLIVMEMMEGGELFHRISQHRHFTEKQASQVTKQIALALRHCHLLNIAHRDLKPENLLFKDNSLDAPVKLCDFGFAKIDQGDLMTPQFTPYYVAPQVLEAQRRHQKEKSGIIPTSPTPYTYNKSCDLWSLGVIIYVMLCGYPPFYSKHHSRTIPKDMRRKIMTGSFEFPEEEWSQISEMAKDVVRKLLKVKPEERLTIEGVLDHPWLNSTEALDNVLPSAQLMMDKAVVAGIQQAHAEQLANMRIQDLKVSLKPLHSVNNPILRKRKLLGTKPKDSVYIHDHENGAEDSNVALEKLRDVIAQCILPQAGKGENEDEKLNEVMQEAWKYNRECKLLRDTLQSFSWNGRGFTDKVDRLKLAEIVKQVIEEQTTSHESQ

[14] = biological target: MAP kinase-activated protein kinase 3 (Homo sapiens) (UniProt Q16644); test: Inhibition of human full length MAPKAPK3 expressed in Escherichia coli cell assessed as substrate phosphorylation using fluorescence-labelled peptides as substrate at 70 uM after 90 mins by microfluidic peptide phosphorylation assay
Chain of MAP kinase-activated protein kinase 3 (Homo sapiens) (Q16644 whole entry, looked up): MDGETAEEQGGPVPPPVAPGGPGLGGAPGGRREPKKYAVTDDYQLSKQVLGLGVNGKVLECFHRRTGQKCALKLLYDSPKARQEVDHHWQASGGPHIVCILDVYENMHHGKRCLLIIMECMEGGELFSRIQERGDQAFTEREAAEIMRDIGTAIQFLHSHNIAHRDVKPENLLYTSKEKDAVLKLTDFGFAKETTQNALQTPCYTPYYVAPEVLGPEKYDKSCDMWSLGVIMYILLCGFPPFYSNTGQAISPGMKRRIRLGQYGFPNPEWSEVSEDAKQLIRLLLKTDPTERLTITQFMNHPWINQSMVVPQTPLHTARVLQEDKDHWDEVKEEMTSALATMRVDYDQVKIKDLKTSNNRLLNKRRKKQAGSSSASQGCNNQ

NCCc1ccc(-c2ncnc3[nH]cnc23)cc1
inhibition [1]: 62%

Clc1ccc(C2(c3ccc(-c4ncnc5[nH]cnc45)cc3)CCNCC2)cc1
inhibition [2]: 46.5%

NCC1CCN(c2ncnc3[nH]ccc23)CC1
inhibition [3]: 23.5%
inhibition [4]: 1.5%

NC1CCN(c2ncnc3[nH]ccc23)CC1
inhibition [5]: 83%
inhibition [6]: 8%
inhibition [7]: 18%
inhibition [8]: 3%
inhibition [9]: 0%

NC1(Cc2ccc(Cl)cc2)CCN(c2ncnc3[nH]ccc23)CC1
inhibition [10]: 0%

C[C@H](CN(C)C)Oc1nc(Nc2cc3cccc(Cl)c3cn2)cnc1C#N
inhibition [11]: 0%

c1nc(N2CCOCC2)c2nc[nH]c2n1
inhibition [12]: 20.5%

CNCc1ccc(-c2ncnc3[nH]cnc23)cc1
inhibition [13]: 20.5%
inhibition [14]: 1.5%
